Reference: ChEMBL document CHEMBL5236544, “Furazans in Medicinal Chemistry” (J Med Chem, 2021)
Values after ≈ are worked out from the molar mass of the structure shown. Values joined by “and” are separate entries in the source; they are usually repeats but may differ in a detail not shown here. Identical values can stand only once. One block for each compound: values may come before it.

What was measured:
[1] = Half life in mouse; assay type: ADME, organism-based; conditions: in vivo
[2] = Stability in rat assessed as intrinsic clearance; assay type: ADME; conditions: CLH
[3] = Oral bioavailability in rat at 3 mg/kg relative to control; assay type: ADME, organism-based; conditions: in vivo
HeLa [4] = assay: Antitumor activity against human HeLa cells xenografted in mouse model assessed as reduction in tumor growth at 75 mg/kg bid relative to control; assay type: functional; set-up: scale not given: the % may be the effect or the level left
HeLa [5] = assay: Antitumor activity against human HeLa cells xenografted in mouse assessed as reduction in tumor growth at 30 mg/kg bid relative to control; assay type: functional; set-up: scale not given: the % may be the effect or the level left
[6] = target: Indoleamine 2,3-dioxygenase 1 (Homo sapiens, UniProt P14902); assay: Inhibition of IDO1 (unknown origin)
Chain of Indoleamine 2,3-dioxygenase 1 (P14902 whole entry): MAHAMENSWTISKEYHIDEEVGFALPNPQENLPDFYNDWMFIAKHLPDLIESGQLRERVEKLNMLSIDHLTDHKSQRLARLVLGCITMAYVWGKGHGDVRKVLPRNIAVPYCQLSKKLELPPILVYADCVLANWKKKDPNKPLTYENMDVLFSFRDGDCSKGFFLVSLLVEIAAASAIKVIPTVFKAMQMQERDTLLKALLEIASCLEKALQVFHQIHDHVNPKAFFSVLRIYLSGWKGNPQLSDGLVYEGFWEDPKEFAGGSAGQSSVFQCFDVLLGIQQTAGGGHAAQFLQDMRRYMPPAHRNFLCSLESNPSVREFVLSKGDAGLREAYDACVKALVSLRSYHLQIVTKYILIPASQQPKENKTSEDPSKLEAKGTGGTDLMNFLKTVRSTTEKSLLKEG

HeLa [7] = assay: Antiproliferative activity against human HeLa cells assessed as reduction in cell viability by MTT assay; assay type: functional, cell-based
HCT-116 [8] = assay: Antiproliferative activity against human HCT-116 cells assessed as inhibition of cell proliferation by MTT assay; assay type: functional, cell-based
[9] = Antiproliferative activity against mouse Lewis lung carcinoma cell line cells assessed as inhibition of cell proliferation by MTT assay; assay type: functional, cell-based
HCT-116 [10] = assay: Antitumor activity against human HCT-116 cells xenografted in mouse model assessed as reduction in tumor growth at 100 mg/kg bid relative to control; assay type: functional; set-up: scale not given: the % may be the effect or the level left
MCF7 = assay: cells; assay type: functional, cell-based; conditions: Homo sapiens, MCF7, 24 h
Description: Antiproliferative activity against human MCF7 assessed as reduction in cell viability incubated for 24 hrs by MTT assay

physchem [11] = conditions: octanol/water
Description: Lipophilicity, log P of the compound

physchem [12] = conditions: PBS, pH 7.4
Description: Solubility of the compound in PBS at pH 7.4

in vitro = conditions: human, liver microsomes, po, 10 mg/kg
Description: Half life in human liver microsomes at 10 mg/kg, po

Rattus norvegicus [13] = assay: Antihypertensive activity in spontaneously hypertensive rat model assessed as change in blood pressure at 1 mg/kg, po measured after 3 hrs; assay type: functional
Rattus norvegicus [14] = assay: Antihypertensive activity in spontaneously hypertensive rat model assessed as change in heart rate at 1 umol/kg, po measured after 3 hrs; assay type: functional
Rattus norvegicus [15] = assay: Antihypertensive activity in spontaneously hypertensive rat model assessed as change in blood pressure at 1 mg/kg, po measured after 6 hrs; assay type: functional
Rattus norvegicus [16] = assay: Antihypertensive activity in spontaneously hypertensive rat model assessed as change in heart rate at 10 mg/Kg, po measured after 6 hrs; assay type: functional
Rattus norvegicus [17] = assay: Antihypertensive activity in spontaneously hypertensive rat model assessed as change in blood pressure at 1 mg/kg, po measured after 10 hrs; assay type: functional
Rattus norvegicus [18] = assay: Antihypertensive activity in spontaneously hypertensive rat model assessed as change in heart rate at 1 mmol/Kg, po measured after 10 hrs; assay type: functional
Rattus norvegicus [19] = species on record: Rattus norvegicus; assay: Antihypertensive activity in spontaneously hypertensive rat model assessed as reduction in pulmonary arterial pressure; assay type: functional
Rattus norvegicus [20] = species on record: Rattus norvegicus; assay: Antihypertensive activity in spontaneously hypertensive rat model assessed as reduction in systemic arterial pressure; assay type: functional
Staphylococcus aureus [21] = assay: Antibacterial activity against Staphylococcus aureus assessed as reduction in bacterial growth by broth microdilution method; assay type: functional
Streptococcus pneumoniae [22] = assay: Antibacterial activity against Streptococcus pneumoniae assessed as reduction in bacterial growth by broth microdilution method; assay type: functional
Staphylococcus aureus [23] = assay: Antibacterial activity against Staphylococcus aureus assessed as reduction in bacterial growth incubated for 1 hrs in presence of azithromycin by colony-counting method; assay type: functional
Streptococcus pneumoniae [24] = assay: Antibacterial activity against Streptococcus pneumoniae assessed as reduction in bacterial growth incubated for 1 hrs in presence of tobramycin by colony-counting method; assay type: functional
Staphylococcus aureus [25] = assay: Antibiofilm activity against Staphylococcus aureus reduction in biofilm formation at 63 uM relative to control; assay type: functional; set-up: scale not given: the % may be the effect or the level left
Streptococcus pneumoniae [26] = assay: Antibiofilm activity against Streptococcus pneumoniae reduction in biofilm formation at 63 uM relative to control; assay type: functional; set-up: scale not given: the % may be the effect or the level left
Staphylococcus aureus [27] = assay: Antibiofilm activity against Staphylococcus aureus reduction in biofilm formation in the presence of azithromycin at 63 uM relative to control; assay type: functional; set-up: scale not given: the % may be the effect or the level left
Streptococcus pneumoniae [28] = assay: Antibiofilm activity against Streptococcus pneumoniae reduction in biofilm formation in the presence of tobramycin at 13 uM relative to control; assay type: functional; set-up: scale not given: the % may be the effect or the level left
HEK-293T [29] = assay: Antiproliferative activity against human HEK293T cells assessed as inhibition of cell proliferation by MTT assay; assay type: functional, cell-based
HEK-293T [30] = assay: Antitumor activity against human HEK293T cells xenografted in mouse model assessed as reduction in tumor growth at 100 mg/kg bid relative to control; assay type: functional; set-up: scale not given: the % may be the effect or the level left
Rattus norvegicus [31] = assay: Antihypertensive activity in spontaneously hypertensive rat model assessed as change in blood pressure at 10 mg/kg, po measured after 3 hrs; assay type: functional
Rattus norvegicus [32] = assay: Antihypertensive activity in spontaneously hypertensive rat model assessed as change in blood pressure at 10 mg/kg, po measured after 6 hrs; assay type: functional
Rattus norvegicus [33] = assay: Antihypertensive activity in spontaneously hypertensive rat model assessed as change in blood pressure at 10 mg/kg, po measured after 10 hrs; assay type: functional
Rattus norvegicus [34] = assay: Antihypertensive activity in spontaneously hypertensive rat model assessed as change in heart rate at 1 mmol/Kg, po measured after 3 hrs; assay type: functional
Aurora kinase B = Aurora kinase B (Homo sapiens, UniProt Q96GD4); assay: Inhibition of Aurora B (unknown origin)
[35] = target: Epidermal growth factor receptor (Homo sapiens, UniProt P00533); assay: Inhibition of EGF-R (unknown origin)
Chain of Epidermal growth factor receptor (P00533 whole entry): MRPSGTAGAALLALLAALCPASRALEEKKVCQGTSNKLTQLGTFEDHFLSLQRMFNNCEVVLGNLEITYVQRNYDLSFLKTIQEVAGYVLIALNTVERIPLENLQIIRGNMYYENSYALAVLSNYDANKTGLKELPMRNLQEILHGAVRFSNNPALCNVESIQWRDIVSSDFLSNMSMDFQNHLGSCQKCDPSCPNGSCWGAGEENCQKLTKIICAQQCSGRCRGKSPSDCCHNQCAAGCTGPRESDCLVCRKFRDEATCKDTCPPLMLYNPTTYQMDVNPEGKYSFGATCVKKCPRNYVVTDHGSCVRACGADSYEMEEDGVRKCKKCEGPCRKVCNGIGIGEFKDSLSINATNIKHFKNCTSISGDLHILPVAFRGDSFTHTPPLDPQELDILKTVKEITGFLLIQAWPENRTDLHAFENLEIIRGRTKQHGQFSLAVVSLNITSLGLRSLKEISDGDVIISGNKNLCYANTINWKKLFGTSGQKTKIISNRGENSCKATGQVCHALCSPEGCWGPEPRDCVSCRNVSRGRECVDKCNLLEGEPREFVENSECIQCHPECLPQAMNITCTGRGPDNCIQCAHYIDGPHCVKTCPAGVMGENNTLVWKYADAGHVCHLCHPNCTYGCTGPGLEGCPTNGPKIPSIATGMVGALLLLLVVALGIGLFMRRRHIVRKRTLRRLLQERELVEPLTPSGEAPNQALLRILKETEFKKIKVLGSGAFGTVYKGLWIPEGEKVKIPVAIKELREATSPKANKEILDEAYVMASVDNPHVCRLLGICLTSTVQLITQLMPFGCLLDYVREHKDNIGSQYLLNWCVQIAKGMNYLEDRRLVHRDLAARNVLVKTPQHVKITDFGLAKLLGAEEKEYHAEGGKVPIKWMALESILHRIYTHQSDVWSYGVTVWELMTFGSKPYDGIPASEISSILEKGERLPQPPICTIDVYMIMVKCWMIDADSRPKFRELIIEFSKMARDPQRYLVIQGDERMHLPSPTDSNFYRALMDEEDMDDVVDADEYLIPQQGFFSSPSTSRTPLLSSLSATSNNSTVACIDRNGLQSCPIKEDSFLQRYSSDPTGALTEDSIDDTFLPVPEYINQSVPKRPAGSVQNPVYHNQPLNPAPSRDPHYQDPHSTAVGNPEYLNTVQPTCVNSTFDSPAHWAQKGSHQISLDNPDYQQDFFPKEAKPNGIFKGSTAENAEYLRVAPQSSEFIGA

[36] = target: Insulin-like growth factor 1 receptor (Homo sapiens, UniProt P08069); assay: Inhibition of IGF-1R (unknown origin)
Chain of Insulin-like growth factor 1 receptor (P08069 31-736 limits assumed): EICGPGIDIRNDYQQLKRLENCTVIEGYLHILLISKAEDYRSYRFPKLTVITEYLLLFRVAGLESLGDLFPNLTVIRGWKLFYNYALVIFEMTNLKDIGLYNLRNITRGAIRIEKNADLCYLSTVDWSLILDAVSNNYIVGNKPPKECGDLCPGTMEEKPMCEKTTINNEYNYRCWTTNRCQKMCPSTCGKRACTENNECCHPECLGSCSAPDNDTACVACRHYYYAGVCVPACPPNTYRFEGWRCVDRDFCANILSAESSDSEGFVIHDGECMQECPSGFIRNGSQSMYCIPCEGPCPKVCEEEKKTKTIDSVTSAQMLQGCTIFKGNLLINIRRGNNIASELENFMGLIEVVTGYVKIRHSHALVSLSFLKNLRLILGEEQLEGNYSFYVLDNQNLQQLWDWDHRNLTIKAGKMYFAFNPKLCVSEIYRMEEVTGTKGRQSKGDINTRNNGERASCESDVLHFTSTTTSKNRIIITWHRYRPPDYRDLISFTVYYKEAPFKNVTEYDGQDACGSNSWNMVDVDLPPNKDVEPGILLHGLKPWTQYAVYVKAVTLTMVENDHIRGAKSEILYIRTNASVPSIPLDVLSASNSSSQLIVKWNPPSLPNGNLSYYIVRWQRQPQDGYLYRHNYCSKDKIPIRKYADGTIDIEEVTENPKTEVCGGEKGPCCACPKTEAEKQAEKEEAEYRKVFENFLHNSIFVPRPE
Chain of Insulin-like growth factor 1 receptor (P08069 741-1367 limits assumed): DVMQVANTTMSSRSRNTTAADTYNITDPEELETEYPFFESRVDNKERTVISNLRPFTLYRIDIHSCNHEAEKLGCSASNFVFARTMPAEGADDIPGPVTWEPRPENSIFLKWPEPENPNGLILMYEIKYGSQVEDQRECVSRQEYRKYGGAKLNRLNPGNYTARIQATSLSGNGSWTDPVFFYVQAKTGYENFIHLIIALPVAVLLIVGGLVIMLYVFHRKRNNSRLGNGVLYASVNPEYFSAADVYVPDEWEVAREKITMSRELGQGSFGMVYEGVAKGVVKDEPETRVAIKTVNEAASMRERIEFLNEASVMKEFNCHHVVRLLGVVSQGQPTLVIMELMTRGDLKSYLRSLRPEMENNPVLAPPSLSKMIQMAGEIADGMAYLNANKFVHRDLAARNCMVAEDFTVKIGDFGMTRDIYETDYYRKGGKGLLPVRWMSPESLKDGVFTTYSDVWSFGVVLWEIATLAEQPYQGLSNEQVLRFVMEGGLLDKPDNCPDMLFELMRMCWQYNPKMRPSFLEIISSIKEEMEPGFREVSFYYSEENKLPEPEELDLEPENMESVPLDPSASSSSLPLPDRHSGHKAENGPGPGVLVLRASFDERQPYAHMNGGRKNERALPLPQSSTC

[37] = target: Vascular endothelial growth factor receptor 2 (Homo sapiens, UniProt P35968); assay: Inhibition of VEGF-R2 (unknown origin)
Chain of Vascular endothelial growth factor receptor 2 (P35968 whole entry): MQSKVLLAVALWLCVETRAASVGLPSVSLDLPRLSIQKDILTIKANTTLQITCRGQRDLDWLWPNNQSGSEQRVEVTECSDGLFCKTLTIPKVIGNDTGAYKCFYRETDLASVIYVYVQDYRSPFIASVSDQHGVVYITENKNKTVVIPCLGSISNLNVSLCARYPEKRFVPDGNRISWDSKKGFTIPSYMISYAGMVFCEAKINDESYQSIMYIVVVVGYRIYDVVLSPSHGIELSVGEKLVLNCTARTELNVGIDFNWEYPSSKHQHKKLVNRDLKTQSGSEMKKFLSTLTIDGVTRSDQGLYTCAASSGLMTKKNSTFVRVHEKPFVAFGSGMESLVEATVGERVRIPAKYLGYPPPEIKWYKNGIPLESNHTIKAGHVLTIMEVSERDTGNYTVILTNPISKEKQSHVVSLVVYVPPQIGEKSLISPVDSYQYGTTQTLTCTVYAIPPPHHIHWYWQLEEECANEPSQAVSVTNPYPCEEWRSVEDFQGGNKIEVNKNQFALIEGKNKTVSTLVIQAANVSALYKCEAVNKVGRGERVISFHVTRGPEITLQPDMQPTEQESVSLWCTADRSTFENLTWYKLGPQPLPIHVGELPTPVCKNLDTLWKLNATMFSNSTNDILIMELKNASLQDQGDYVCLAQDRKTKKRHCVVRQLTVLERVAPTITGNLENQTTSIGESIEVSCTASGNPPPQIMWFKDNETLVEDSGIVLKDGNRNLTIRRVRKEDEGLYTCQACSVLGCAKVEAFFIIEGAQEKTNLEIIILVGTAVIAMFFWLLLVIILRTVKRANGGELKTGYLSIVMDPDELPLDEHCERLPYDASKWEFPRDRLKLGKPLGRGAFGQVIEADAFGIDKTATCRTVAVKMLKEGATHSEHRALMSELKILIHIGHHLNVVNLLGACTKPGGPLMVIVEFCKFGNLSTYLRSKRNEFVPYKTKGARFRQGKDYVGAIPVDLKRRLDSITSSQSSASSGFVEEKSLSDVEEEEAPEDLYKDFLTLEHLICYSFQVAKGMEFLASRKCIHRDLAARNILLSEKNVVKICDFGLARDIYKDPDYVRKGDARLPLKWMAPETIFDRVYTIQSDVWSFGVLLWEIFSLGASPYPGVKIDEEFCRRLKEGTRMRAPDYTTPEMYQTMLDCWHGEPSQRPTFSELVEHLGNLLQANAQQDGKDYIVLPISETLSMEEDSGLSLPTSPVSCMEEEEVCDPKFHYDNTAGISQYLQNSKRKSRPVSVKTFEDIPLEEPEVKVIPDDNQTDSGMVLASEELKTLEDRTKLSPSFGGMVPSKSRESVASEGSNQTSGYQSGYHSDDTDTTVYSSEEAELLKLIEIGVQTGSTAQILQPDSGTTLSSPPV

[38] = target: Proto-oncogene tyrosine-protein kinase Src (Homo sapiens, UniProt P12931); assay: Inhibition SRC (unknown origin)
Chain of Proto-oncogene tyrosine-protein kinase Src (P12931 2-536 limits assumed): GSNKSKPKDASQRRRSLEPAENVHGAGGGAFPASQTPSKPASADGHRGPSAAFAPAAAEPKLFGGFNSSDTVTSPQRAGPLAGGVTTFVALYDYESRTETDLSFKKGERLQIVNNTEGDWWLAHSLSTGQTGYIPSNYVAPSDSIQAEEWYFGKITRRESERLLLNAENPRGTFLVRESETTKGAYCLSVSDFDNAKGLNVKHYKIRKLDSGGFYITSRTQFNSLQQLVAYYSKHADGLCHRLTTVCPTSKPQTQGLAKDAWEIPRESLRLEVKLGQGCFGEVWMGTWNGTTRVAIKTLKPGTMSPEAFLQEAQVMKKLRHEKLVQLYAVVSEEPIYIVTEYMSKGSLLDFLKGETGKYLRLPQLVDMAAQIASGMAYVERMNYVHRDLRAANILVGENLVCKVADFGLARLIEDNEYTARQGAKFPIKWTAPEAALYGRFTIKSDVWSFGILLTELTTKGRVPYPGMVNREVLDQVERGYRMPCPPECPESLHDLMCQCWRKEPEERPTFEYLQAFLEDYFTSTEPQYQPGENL

A549 [39] = assay: Antiproliferative activity against human A549 cells assessed as inhibition of cell proliferation by MTT assay; assay type: functional, cell-based
Histone deacetylase = assay: Inhibition of HDAC (unknown origin); assay type: protein assay, Homo sapiens
[40] = Half life in rat, iv; assay type: ADME; conditions: in vivo
A549 [41] = assay: Antitumor activity against human A549 cells xenografted in mouse model assessed as reduction in tumor growth at 100 mg/kg bid relative to control; assay type: functional; set-up: scale not given: the % may be the effect or the level left
Helicobacter pylori [42] = assay: Antibacterial activity against Helicobacter pylori SS1 assessed as reduction in bacterial growth incubated for 1 hrs in presence of metronidazole by colony-counting method; assay type: functional
Helicobacter pylori [43] = assay: Antibacterial activity against Helicobacter pylori NCTC11637 assessed as reduction in bacterial growth incubated for 1 hrs in presence of metronidazole-resistant by colony-counting method; assay type: functional
Helicobacter pylori [44] = assay: Antibacterial activity against Helicobacter pylori NCTC11637 assessed as reduction in bacterial growth incubated for 1 hrs in presence of metronidazole by colony-counting method; assay type: functional
Helicobacter pylori [45] = assay: Antibacterial activity against Helicobacter pylori SS1 assessed as reduction in bacterial growth in the presence of metronidazole-sensitive by broth microdilution method; assay type: functional
Mus musculus = assay: In vivo antibacterial activity against Helicobacter pylori SS1 infected mouse model assessed as reduction in infection at 200 mg/kg, po administered for 8 days relative to control; assay type: functional; set-up: scale not given: the % may be the effect or the level left; conditions: time 8 day

half-life [1]: < 0.5 h
CLint scaled [2]: 11.7 mL/min/kg
bioavailability [3]: 11%
Compound: NS(=O)(=O)NCCNc1nonc1/C(=N/O)Nc1ccc(F)c(Br)c1 [EPACADOSTAT]
Activity (HeLa [4]): 50%
Activity (HeLa [5]): 56%

Compound: O=C(NCCNc1nonc1/C(=N/O)Nc1ccc(F)c(Br)c1)c1cccc(N(CCCl)CCCl)c1
IC50 [6]: 130 nM
EC50 (HeLa [7]): 270 nM
EC50 (HCT-116 [8]): 5100 nM
EC50 [9]: 18000 nM
Activity (HCT-116 [10]): 58% and 48%

EC50 (MCF7): 4300 nM
logP (physchem [11]): 5.2
solubility (physchem [12]): > 500 µM
half-life (in vitro): 5.7 h
Compound: Oc1nc2nonc2nc1Nc1ccc(OC(F)(F)F)cc1

Compound: CCn1c(-c2nonc2N)nc2cncc(C(=O)N3CC[C@H](N)C3)c21
Activity (Rattus norvegicus [13]): -20 mmHg
Activity (Rattus norvegicus [14]): 20 bpm
Activity (Rattus norvegicus [15]): -20 mmHg
Activity (Rattus norvegicus [16]): -40 bpm
Activity (Rattus norvegicus [17]): -5 mmHg
Activity (Rattus norvegicus [18]): -25 bpm
Activity (Rattus norvegicus [19]): -13 mmHg
Activity (Rattus norvegicus [20]): -40 mmHg

MIC (Staphylococcus aureus [21]): 250 µM (≈ 65.3 µg/mL)
MIC (Streptococcus pneumoniae [22]): 250 µM (≈ 65.3 µg/mL)
MIC (Staphylococcus aureus [23]): 200 µM
MIC (Streptococcus pneumoniae [24]): 50 µM
Compound: N=C(N/C(=N/O)c1nonc1N)c1ccccc1N
Activity (Staphylococcus aureus [25]): 77%
Activity (Streptococcus pneumoniae [26]): 73%
Activity (Staphylococcus aureus [27]): 48%
Activity (Streptococcus pneumoniae [28]): 50%

half-life [1]: 3.8 h
Compound: NS(=O)(=O)N1CCC[C@@H](CNc2nonc2/C(=N/O)Nc2ccc(F)c(Br)c2)C1
EC50 (HEK-293T [29]): 69 nM
Activity (HEK-293T [30]): 25%

Compound: C[C@@H](N)[C@H]1CC[C@H](C(=O)Nc2ccncc2)CC1 [Y-27632]
Activity (Rattus norvegicus [16]): 10 bpm
Activity (Rattus norvegicus [18]): 0 bpm
Activity (Rattus norvegicus [31]): -25 mmHg
Activity (Rattus norvegicus [32]): -10 mmHg
Activity (Rattus norvegicus [33]): -5 mmHg
Activity (Rattus norvegicus [34]): 75 bpm
Activity (Rattus norvegicus [19]): -10 mmHg
Activity (Rattus norvegicus [20]): -32 mmHg

IC50 (Aurora kinase B): < 1000 nM
IC50 [35]: < 1000 nM
IC50 [36]: < 1000 nM
IC50 [37]: < 1000 nM
IC50 [38]: < 1000 nM
Compound: O=C(O)c1cc(-c2ccc(/C=N/Nc3nc4nonc4nc3Nc3ccccc3)o2)ccc1Cl

EC50 (A549 [39]): 170 nM
EC50 (HCT-116 [8]): 5100 nM
IC50 (Histone deacetylase): 67 nM
half-life [40]: 3.4 h
Compound: Nc1ccccc1NC(=O)c1ccc(C(=O)NCCNc2nonc2/C(=N/O)Nc2ccc(F)c(Br)c2)cc1
EC50 [9]: 18000 nM
Activity (A549 [41]): 56% and 54%

Compound: COc1ccc(C[S+]([O-])c2ccc(N)c3nonc23)cc1 (configuration not stated)
MIC (Helicobacter pylori [42]): 2.9 µM
MIC (Helicobacter pylori [43]): 53 µM
MIC (Helicobacter pylori [44]): 187 µM
MIC (Helicobacter pylori [45]): 105 µM
Activity (Mus musculus): 60%
